Values of other authors as cited in patent publication US4842859A, “Pharmaceutical compositions for reducing hyperlipidemia and platelet-aggregation” (priority 1986, dated 1989).

What was measured:
[1] = system: transient ischemic attacks; settings: men; prior art
[2] = patients; prior art; listed as clofibrate

SMILES | effect on incidence of transient ischemic attacks [1] | side effects / toxic effects [2]
CC(=O)Oc1ccccc1C(=O)O [Aspirin] | decrease the incidence of transient ischemic attacks | –
CCOC(=O)C(C)(C)Oc1ccc(Cl)cc1 [Clofibrate] | – | decreased libido and breast tenderness
